Several values for one entry are separate records, joined by “and”; a condition that tells them apart may be missing. Equal entries are not always repeated. Where two headings read alike, the source gives them in different places.
Tests used:
[1] = tested on: Shionogi mouse mammary carcinoma cells; assay: In vitro androgenic/antiandrogenic activity: proliferation of Shionogi cells with or without DHT; assay type: cell-based; settings: for IC50: Mus musculus
Human Androgen Receptor = Human Androgen Receptor (Homo sapiens (Human), UniProt P10275); assay: Androgen receptor assay: [3H]R1881 displacement, cytosol of HEK-293 cells transfected with hAR (hydroxylapatite assay); assay type: binding; settings: for Human Androgen Receptor Binding RBA (%) R1881 = 100: relative binding affinity
[2] = tested on: castrated (CX) immature male rats; assay: Systemic androgenic (agonistic) activity in orchidectomized (CX) immature male rats; assay type: in vivo, rat; settings: 0.1 mg/rat/po, 7 days; for CX Agonistic activity % Stimulation Bulbo: bulbocavernosus muscles weight; for CX Agonistic activity % Stimulation SV: seminal vesicles weight; for CX Agonistic activity % Stimulation Prostate: ventral prostate weight
Description: Immature male rats (Crl:CD(SD)Br) 22 to 24-day old weighting 60-80 g at start of treatment were obtained from Charles-River, Inc. (St-Constant, Quebec, Canada) and housed up to 5 per cage in plastic bins in a temperature (23±1° C.)- and light (12 h light/day, lights on at 7 h15)-controlled environment. The rats were fed rodent chow and tap water ad libitum. […] The day following their arrival, the designed animals were orchidectomized (CX) under Isoflurane anesthesia (Study Day 1) via the scrotal route and were then randomly assigned to groups of 3 to 5 animals. At the time of orchidectomy, one silastic implant of dihydrotestosterone (DHT; 1 cm length of pure DHT in silastic tubing having inner and outer diameter of 0.078 and 0.125 inches, respectively), was inserted subcutaneously in the dorsal area of animals assigned to the evaluation of antiandrogenic activity. In the case of intact animal experiments, the orchidectomy and the silastic implant installation are omitted.
Tested compounds were administered orally once daily for 7 days from Study Day 2 to Study Day 8 at doses generally ranging from 0.1 and 0.5 mg/animal. Compounds were either solubilized in dimethylsulfoxide (DMSO, 10% final concentration) and were administered as a solution/suspension in 0.9% NaCl-1% gelatin or were administered as suspensions in 0.4% aqueous methylcellulose. Animals of the control groups received the corresponding vehicle alone during the 7-day period. Some animals were treated with the antiandrogen Flutamide or Casodex as reference. The animals under isoflurane anesthesia were killed by cervical dislocation on day 9 of the study, approximately 24 h after the last dosing. The ventral prostate, seminal vesicles and bulbocavernosus muscles were rapidly dissected and weighed.
For calculations with intact animals, control DHT is replaced by control intact and the % stimulation is subtracted by 100%. W is the weight of the prostate, seminal vesicles or bulbocavernosus muscles. Discussion

[3] = read-out: Shionogi Antiandrogenic Activity IC50, DHT (0.3 nM)-stimulated cell number

Human Androgen Receptor, sequence (P10275 whole entry): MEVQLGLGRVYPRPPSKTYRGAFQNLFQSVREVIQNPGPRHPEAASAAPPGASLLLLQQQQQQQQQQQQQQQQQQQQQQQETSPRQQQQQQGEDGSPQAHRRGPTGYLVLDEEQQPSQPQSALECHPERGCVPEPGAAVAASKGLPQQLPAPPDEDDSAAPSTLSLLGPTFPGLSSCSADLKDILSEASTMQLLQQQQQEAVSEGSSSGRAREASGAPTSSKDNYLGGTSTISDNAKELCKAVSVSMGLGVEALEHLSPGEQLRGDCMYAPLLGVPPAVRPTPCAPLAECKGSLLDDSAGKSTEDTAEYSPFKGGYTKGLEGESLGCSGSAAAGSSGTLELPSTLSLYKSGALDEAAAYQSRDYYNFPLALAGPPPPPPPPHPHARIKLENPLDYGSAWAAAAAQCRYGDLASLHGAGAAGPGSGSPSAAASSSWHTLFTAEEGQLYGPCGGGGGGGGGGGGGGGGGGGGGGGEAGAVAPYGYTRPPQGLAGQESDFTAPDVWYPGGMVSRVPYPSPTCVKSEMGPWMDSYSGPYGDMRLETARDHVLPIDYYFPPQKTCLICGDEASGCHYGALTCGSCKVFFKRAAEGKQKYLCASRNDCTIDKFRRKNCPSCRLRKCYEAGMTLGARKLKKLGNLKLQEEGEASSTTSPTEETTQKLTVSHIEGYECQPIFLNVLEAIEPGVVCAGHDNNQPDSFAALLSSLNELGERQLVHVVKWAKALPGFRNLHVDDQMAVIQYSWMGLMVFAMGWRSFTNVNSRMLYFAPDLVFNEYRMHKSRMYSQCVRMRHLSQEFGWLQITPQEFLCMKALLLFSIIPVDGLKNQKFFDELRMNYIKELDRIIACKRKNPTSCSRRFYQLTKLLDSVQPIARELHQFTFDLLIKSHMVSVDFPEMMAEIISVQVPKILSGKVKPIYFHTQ

SMILES | IC50 [1, 3] [µM] | % of stimulation at 10^−7M on basal Shionogi cells ([1]; basal (no DHT), 10^−7M) [%] | Human Androgen Receptor Binding RBA (%) R1881 = 100 (Human Androgen Receptor; transfected cells) [%] | times more potent than OH-flutamide on the human AR (RBA ratio) (Human Androgen Receptor; versus hydroxyflutamide) [times] | CX Agonistic activity % Stimulation Bulbo [2] | CX Agonistic activity % Stimulation SV [2] | CX Agonistic activity % Stimulation Prostate [2] | Human Androgen Receptor Binding RBA (%) R1881 = 100 (Human Androgen Receptor; […]) | IC50 ([1]; DHT (0.3 nM)-stimulated cell number, read-out: Shionogi Antiandrogenic Activity IC50) [µM]
Cc1c(N2C(=O)N(CCCOc3ccc(-c4ccncc4)c(Cl)c3)C(C)(C)C2=O)ccc(C#N)c1Cl [EM-9290] | 0.0648 | 25 | 197 | 938 | 88±2% and 88 ± 12 (n = 2) % | 16 ± 2 (n = 2) % | 39 ± 6 (n = 2) % | – | –
Cc1c(N2C(=O)N(CCCOc3ccc(-c4cc[n+]([O-])cc4)c(Cl)c3)C(C)(C)C2=O)ccc(C#N)c1Cl [EM-9291] | 0.0755 | – | 64.2 | – | 91 ± 2 (n = 2) % | 21 ± 7 (n = 2) % | 47 ± 7 (n = 2) % | – | –
Cc1c(N2C(=O)C(C)(C)N(CCCOc3ccc(-c4ccncc4)c(Cl)c3)C2=S)ccc(C#N)c1Cl [EM-8887] | 0.133 | – | – | – | 214% | 107% | 55% | 1890 ± 1040 (n = 2) % | –
Cc1c(N2C(=O)C(C)(C)N(CCCOc3ccc(-c4cc[n+]([O-])cc4)cc3)C2=S)ccc(C#N)c1Cl [EM-8913] | > 0.1 | – | – | – | 160% | 65% | 54% | 114% | –
Cc1c(N2C(=O)C(C)(C)N(CCCOc3ccc(-c4ccnc(F)c4)cc3)C2=S)ccc(C#N)c1Cl [EM-8922] | 0.079 | – | – | – | 134% | 54% | 52% | 414% | –
Cc1c(N2C(=O)N(CCCOc3ccc(-c4cc[n+]([O-])cc4)c(C(F)(F)F)c3)C(C)(C)C2=O)ccc(C#N)c1Cl [EM-9334] | 0.0289 | – | – | – | 86% | 17% | 30% | 17.8% | –
Cc1c(N2C(=O)N(CCCOc3ccc4ccc[n+]([O-])c4c3)C(C)(C)C2=O)ccc(C#N)c1Cl [EM-9302] | 0.11 | – | – | – | 57% | 8% | 29% | 1.3% | –
Cc1c(N2C(=O)C(C)(C)N(CCCOc3ccc(-c4ccc(N(C)C)nc4)c(F)c3)C2=S)ccc(C#N)c1Cl [EM-8996] | 0.1 | – | 48.9 | – | 131% | 53% | 49% | – | –
CC1(C)C(=O)N(c2ccc(C#N)c(C(F)(F)F)c2)C(=S)N1CCCOc1ccc2ncncc2c1 [EM-9010] | 0.01 | – | – | – | 5% | 0% | 0% | 29.5% | –
Cc1c(N2C(=O)C(C)(C)N(CCCOc3ccc(-c4ccncc4)c(C(F)(F)F)c3)C2=S)ccc(C#N)c1Cl [EM-8820] | 0.0218 | – | 263 | – | 154% | 58% | 33% | – | –
Cc1c(N2C(=O)C(C)(C)N(CCCOc3ccc(-c4ccc(N(C)C)nc4)cc3)C2=S)ccc(C#N)c1Cl [EM-8993] | 0.0595 | – | 4.8 | – | 123% | 61% | 50% | – | –
Cc1c(N2C(=O)C(C)(C)N(CCCOc3ccc(-c4ccncc4)cc3Cl)C2=S)ccc(C#N)c1Cl [EM-8799] | 0.116 | – | – | – | 126% | 55% | 58% | 877% | –
Cc1c(N2C(=O)C(C)(C)N(CCCOc3ccc4cnccc4c3)C2=S)ccc(C#N)c1Cl [EM-8869] | – | – | 56 | – | 101% | 18% | 31% | – | ~1

— patent US9682960B2 (priority 2013, dated 2017)
